{"source": "patent US12491185B2", "about": "“Inhibitors of mPTP” (NRG Therapeutics Ltd, priority 2023, dated 2025)", "data": [{"test_system": "mPTP", "test": "mPTP activity (Ca2+ retention) assay in isolated rat liver mitochondria", "type": "biochemical", "conditions": "examples tested by different contract research organisations, believed comparable", "from_the_text": "Pharmacological inhibition or modulation of the mPTP can be measured in well characterised ‘Ca^2+ retention’ assays performed in isolated mitochondria. In vitro, isolated mitochondria rapidly sequester exogenous Ca^2+ until the intramitochondrial Ca^2+ concentration reaches the threshold for mPTP activation. Once the pore is activated, mitochondrial integrity is compromised and the stored Ca^2+ is released. The distribution of Ca^2+ between extra- and intra-mitochondrial compartments can be measured in real time with the use of membrane-impermeant Ca^2+ sensitive fluorescent dyes. Depending on the configuration of the assay, inhibition or modulation of the mPTP either delays the opening of the pore or increases the concentration of Ca^2+ required to induce mPTP opening.\nMPTP activity was measured in mitochondria freshly isolated from female Sprague Dawley (250 to 300 gram) rat livers using the following method. Cervical dislocation was performed on the rat. The liver was then perfused in-situ with −40 ml cold Dulbecco's Phosphate Buffered Saline (DPBS) prior to dissection and transferred into 30 ml Isolation Buffer (250 mM Sucrose, 10 mM KCl, 1 mM EGTA, 1 mM EDTA, 25 mM HEPES, adjusted to pH 7.5 with 1M NaOH). Each lobe of the liver was then removed from the buffer, minced using tweezers and a scalpel into −5 mm pieces then transferred into a 50 ml Potterton dounce homogenization tube on ice containing 30 ml ice-cold centrifugation buffer (300 mM Trehalose, 25 mM HEPES, 1 mM EGTA, 1 mM EDTA, 10 mM KCl, adjusted to pH 7.5 with 1M NaOH and supplemented with 0.1% bovine serum albumin (BSA) and complete protease inhibitor cocktail (one tablet of inhibitor per 50 mls of buffer). Homogenisation was carried out using a teflon pestle at 1800 rpm. The slurry was centrifuged at 800 g for 10 min at 4° C., then the supernatant centrifuged at 10,000 g for 10 min. The pellet was washed once with FLIPR assay buffer (75 mM Mannitol, 25 mM Sucrose, 5 mM Potassium Phosphate Monobasic, 20 mM Tris base, 100 mM KCl, 0.1% BSA adjusted to pH 7.4 with 5M HCl) centrifuged again, then resuspended in FLIPR assay buffer to a concentration of 8.8 mg/ml protein.\nTested compounds (10 mM stock in DMSO) were serially diluted in DMSO in half log steps to generate 10 test concentrations (final concentrations in assay 30 μM to 1 nM). An intermediate dilution of 5 μl DMSO samples into 247 μl FLIPR assay buffer was carried out prior to transfer of 5 μl into duplicate wells of a 384 well polypropylene assay plate. Control wells were 0.5% (v/v) DMSO and 5 μM cyclosporin A.\nA stock mitochondria/Fluo5N assay solution was prepared in 5.6 ml FLIPR assay buffer (at RT) supplemented with succinate disodium salt (10 mM), rotenone (1 μM), Fluo5N pentapotassium salt (2 μM) and 1 ml mitochondria suspension, then transferred (15 μl) into the assay plate containing test compounds and incubated for 10 min at RT. Assay plates were processed for fluorescence detection on either a FLIPR Tetra (Molecular Devices) or CLARIOstar (BMG) plate reader. For kinetic fluorescence detection on the FLIPR, dye fluorescence was measured every 3 sec for a total of 10 min. After 12 sec, a 2.5 μl bolus of CaCl2 (75 μM) was added from a source plate containing 675 μM CaCl2 in FLIPR assay buffer. Alternatively, the 2.5 μl addition of CaCl2 was performed using a Viaflow 384, plates were incubated at RT for 10 min, and dye fluorescence measured after 10 min on the CLARIOstar plate reader. pIC50 values for tested compounds were calculated using the fluorescence value collected at the 10 min timepoint on either plate reader, with % inhibition calculated using the DMSO control and cyclosporin A values as 0 and 100% respectively.", "values": [{"smiles": "Cn1nc(C(=O)NCC2(Cc3ccc(F)cc3F)CCC(F)(F)CC2)[nH]c1=O", "note": "[Example 197]", "mPTP Rat liver pIC50": "<4.57"}, {"smiles": "Cn1nc(C(=O)NCCC(C)(C)c2ccccc2)[nH]c1=O", "note": "[Example 59]", "mPTP Rat liver pIC50": 5.06}, {"smiles": "Cn1c(C(=O)NCC2(Cc3ccc(F)cc3F)CCC2)n[nH]c1=O", "note": "[Example 173, N-((1-(2,4-difluorobenzyl)cyclobutyl)methyl)-4-methyl-5-oxo-4,5-dihydro-1H-1,2,4-triazole-3-carboxamide]", "mPTP Rat liver pIC50": "<4.57"}, {"smiles": "O=C(NCC1(Cc2ccc(F)c(F)c2)CCC1)c1cncc(=O)[nH]1", "note": "[Example 139]", "mPTP Rat liver pIC50": 5.73}, {"smiles": "Cn1nc(C(=O)NCC2(Cc3ccc(F)cc3C(F)(F)F)CCC2)[nH]c1=O", "note": "[Example 87, N-((1-(4-Fluoro-2-(trifluoromethyl)benzyl)cyclobutyl)methyl)-1-methyl-5-oxo-4,5-dihydro-1H-1,2,4-triazole-3-carboxamide]", "mPTP Rat liver pIC50": 5.57}, {"smiles": "CCC(CNC(=O)c1nn(C)c(=O)[nH]1)Cc1cscn1", "note": "(stereo not drawn) [Example 112, 1-methyl-5-oxo-N-(2-(thiazol-4-ylmethyl)butyl)-4,5-dihydro-1H-1,2,4-triazole-3-carboxamide]", "mPTP Rat liver pIC50": "<4.57"}, {"smiles": "O=C(NCC1(Cc2cc(F)cc(F)c2)CCC1)c1cncc(=O)[nH]1", "note": "[Example 165]", "mPTP Rat liver pIC50": "<4.57"}, {"smiles": "CC(c1ccc(F)cc1F)[C@@H](CNC(=O)c1nccc(=O)[nH]1)C1CC1", "note": "(stereo partly drawn) [Example 188, N-[(2S)-2-Cyclopropyl-3-(2,4-difluorophenyl)butyl]-4-oxo-3H-pyrimidine-2-carboxamide]", "mPTP Rat liver pIC50": 5.42}, {"smiles": "Cn1nc(C(=O)NC[C@H](Cc2c(F)cccc2F)C2CC2)[nH]c1=O", "note": "[Example 212]", "mPTP Rat liver pIC50": 6.18}, {"smiles": "O=C(NC[C@H](Cc1ccc(F)cc1F)C1CC1)c1noc(=O)[nH]1", "note": "[Example 204]", "mPTP Rat liver pIC50": 6.53}, {"smiles": "O=C(NCC(Cc1ccc(F)cc1Cl)C1CC1)c1nccc(=O)[nH]1", "note": "(stereo not drawn) [Example 214]", "mPTP Rat liver pIC50": "<4.52"}, {"smiles": "CSc1cccc(CC2(CNC(=O)c3nn(C)c(=O)[nH]3)CCC2)c1", "note": "[Example 182]", "mPTP Rat liver pIC50": 5.02}, {"smiles": "Cc1cc(F)ccc1CC1(CNC(=O)c2nccc(=O)[nH]2)CCC1", "note": "[Example 168, N-((1-(4-fluoro-2-methylbenzyl)cyclobutyl)methyl)-6-oxo-1,6-dihydropyrimidine-2-carboxamide]", "mPTP Rat liver pIC50": 6.07}, {"smiles": "O=C(NC[C@H](Cc1c(F)cc(F)cc1F)C1CC1)c1nccc(=O)[nH]1", "note": "[Example 183, (R)—N-(2-cyclopropyl-3-(2,4,6-trifluorophenyl)propyl)-6-oxo-1,6-dihydropyrimidine-2-carboxamide]", "mPTP Rat liver pIC50": 5.4}, {"smiles": "O=C(NCC1(Cc2ccc(F)cc2F)CCC1)c1cn[nH]c(=O)c1", "note": "[Example 127]", "mPTP Rat liver pIC50": "<4.57"}, {"smiles": "Cn1nc(C(=O)NC[C@H](Cc2ccc(F)c(F)c2)C2CC2)[nH]c1=S", "note": "[Example 119]", "mPTP Rat liver pIC50": 5.9}, {"smiles": "Cc1cc(F)ccc1CC1(CNC(=O)c2cncc(=O)[nH]2)CCC1", "note": "[Example 166]", "mPTP Rat liver pIC50": 5.7}, {"smiles": "Cn1nc(C(=O)NCC(Cc2ccc(F)cc2Cl)C2CC2)[nH]c1=O", "note": "(stereo not drawn) [Example 193, N-(3-(2-chloro-4-fluorophenyl)-2-cyclopropylpropyl)-1-methyl-5-oxo-4,5-dihydro-1H-1,2,4-triazole-3-carboxamide]", "mPTP Rat liver pIC50": 6.36}, {"smiles": "CCC(CC)(CNC(=O)c1nn(C)c(=O)[nH]1)Cc1ccc(F)cc1F", "note": "[Example 199]", "mPTP Rat liver pIC50": 6.55}, {"smiles": "CCC(CNC(=O)c1nn(C)c(=O)[nH]1)Cc1cnn(C)c1", "note": "(stereo not drawn) [Example 113, 1-methyl-N-(2-((1-methyl-1H-pyrazol-4-yl)methyl)butyl)-5-oxo-4,5-dihydro-1H-1,2,4-triazole-3-carboxamide]", "mPTP Rat liver pIC50": "<4.57"}, {"smiles": "O=C(NC[C@H](Cc1c(F)cccc1F)C1CC1)c1nccc(=O)[nH]1", "note": "[Example 189]", "mPTP Rat liver pIC50": 5.26}]}]}
